# Measured values from patent US20130288275A1, “COMPOSITIONS AND METHODS FOR DETECTING ACETYLATED SUMO PROTEINS” (Georgetown University, priority 2010, published 2013).
# Assays:
# [1] = test system: SUMO-1 acetylation; experiment: Modulation of SUMO-1 acetylation in H1299 cells expressing SUMO-1; type: cell-based, human; conditions: 500 nM TSA or 1 μM etoposide, versus untreated cells
# Experimental: FIG. 3. SUMO-1 is acetylated when bound to its substrates. A. A polyclonal antibody raised against a SUMO-1 peptide SEIHF{Lys-Ac}[…] acetylated at K37 was raised and purified by peptide affinity purification. The specificity of this antibody was tested first in an in vitro acetylation reaction similar to that described in FIG. 2A. SUMO-1 was incubated in the presence (lane 3) or absence (lane 2) of CBP and cold Acetyl-coenzyme A. Lane 1 contains the acetylation reaction with CBP alone without SUMO-1. Samples were subjected to SDS electrophoresis, blotted on a PDF membrane, and probed with Ac-K37-Ab in immunoblot (upper panel). After chemi-luminescence, the membrane was stained with Comassie Brilliant Blue to reveal SUMO-1 (lower panel). B. Acetylation of SUMO-1 in vivo. Control H1299 cells (lanes 1 and 4) or H1299 expressing naïve SUMO-1 (lanes 2 and 5) or a SUMO-1 harboring lysine to arginine replacements at position K37-K39 and K45-K46-K48 (SUMOK37-K48R, lanes 3 and 6) were induced with tetracycline. […] Following electrophoresis and transfer, membranes were immuno-blotted with the Ac-K37-Ab (left panel, lanes 1-3). Forty micrograms of total cell extracts were probed with the anti-Flag antibody in direct immuno-blot (right panel, lanes 4-6). The position of free SUMO-1 and of SUMO-1 conjugated to RanGap is indicated by arrows. C. Modulation of SUMO-1 acetylation by deacetylases and by DNA damaging agents. H1299 cells expressing SUMO-1 were left untreated (lanes 1 and 5) or they were treated with 500 nM TSA (lanes 2 and 6), with 1 μM etoposide (lanes 3 and 7), or with 100 mM H2O2 (lanes 4 and 8). Cell extracts were prepared in RIPA buffer, immuno-precipitated with the anti-Flag antibody and processed in immuno-blot with the Ac-K37-Ab as described in B (lanes 1-4). Total cell extracts are shown in the right panel. The position of SUMO-1, RanGaP and of SUMO-1 conjugates is indicated. Full arrows indicate non specific reactivity of the Ac-K37-Ab with heavy and light chains of the anti-Flag immuno-precipitation.
# Unless otherwise indicated, cell extracts were prepared in RIPA buffer (0.1% SDS; 50 mM Tris.Cl, pH 6.8; 150 mM NaCl; 0.5% Nonidet P-40; 2 mM EDTA) supplemented with protease a protease inhibitor mixture, with TSA (500 μM) and with […] NEM as an inhibitor of de-sumoylation. Treatment with etoposide was performed at […] overnight. When probed with the anti-SUMO or anti-acetyl-K37 antibody (37-1Ab) in direct immuno-blot, membranes where treated with 6 M Guanidine for 30 minutes, followed by incubation in blocking solution. The Ac-K37 (37-1Ab) antibody was used to a 1:500 dilution in direct immuno-blots on in vitro acetylation reactions (i.e., FIG. 3A) and to a 1:250 dilution for the experiments in cells and in murine tumors. […]
# [2] = target: T1, CBP (Homo sapiens, UniProt Q92793); experiment: Peptide competition of CBP-mediated acetylation of full-length SUMO-1; type: biochemical; conditions: cold acetylated peptide in 10 fold excess relatively to full length SUMO-1; 14C-acetyl CoA
# T1 construct: purified SUMO-1 protein and the catalytic domain of several acetyltransferases, specifically of CBP and PCAF; purchased Biomol
# Experimental: (§1) FIG. 2. Identification of an acetylated domain of SUMO-1 conserved among SUMO family members. A. Purified SUMO1 was subjected to an in vitro acetylation reaction in the absence (lane 2) or presence (lane 3) of CBP, and of 14C-Acetyl-Coenzyme A. Lane 1 contain CBP in the absence of SUMO-1. Reactions were assembled in 30 μl volume, and developed with autoradiography. 1/20 of the reaction mixtures were run independently and proteins were visualized with Coomassie Brilliant Blue staining (lanes 4-6). The position of SUMO-1 and CBP is indicated by arrows. B. Peptide competition experiments. The following acetylated peptides were used: K25-K27:YIK(Ac)LK(Ac)VIG (lane 2); peptide K37-K39:HFK(Ac)VK(Ac)MTT (lane 3); peptide K45-K46-K48:HLK(Ac)K(Ac)LK(Ac)ES (lane 4). Lane 1 contains the acetylation reaction with a control peptide ([…]) and lane 5 contains the acetylation reaction without peptide(s). Polypeptides were incubated in a 10 fold excess relatively to full length SUMO-1. C. Identification of lysines residues acetylated in vitro and in vivo by mass spectrometry and alignment of acetylated residues in SUMO-1 with SUMO-2 and SUMO-3. Acetylated lysines of SUMO-1 are indicated by arrows and bolded in red, and conserved residues are shown. Based on the results of Mass Spectrometry we name the domain comprised between amino acid K37 to K48 SUMO-1 Acetylated Domain, or SAD. D. Acetylation of SUMO family members. Acetylation reactions were carried out as described in A. SUMO-1 (lanes 2, 5) SUMO-2 (lanes 3, 6), or SUMO-3 (lanes 4, 7) were subjected to an acetylation reaction in absence (lanes 2-4) or presence (lanes 5-7; indicated by +) of CBP. Lane 1 contains an acetylation reaction with CBP without SUMO proteins.
# Acetylation reactions were typically assembled in a 30 μl volume, containing HAT buffer (1×25 mM Tris-HCl ph 7.9; 50 mM NaCl, 1 mM DTT), 6 μl of ^14C-Acetyl-Coenzyme A (Amersham) or cold Acetyl-Coenzyme A (lithium salt, from Roche), 1-2 μg CBP, 0.5-1 μg of SUMO proteins. […]
# [3] = target: T2, PCAF (Homo sapiens, UniProt Q92831); experiment: In vitro acetylation reaction with PCAF; type: biochemical; conditions: purified protein, 14C-acetyl CoA
# T2 construct: purified SUMO-1 protein and the catalytic domain of several acetyltransferases, specifically of CBP and PCAF
# Experimental: Acetylation reactions were typically assembled in a 30 μl volume, containing HAT buffer (1×25 mM Tris-HCl ph 7.9; 50 mM NaCl, 1 mM DTT), 6 μl of ^14C-Acetyl-Coenzyme A (Amersham) or cold Acetyl-Coenzyme A (lithium salt, from Roche), 1-2 μg CBP, 0.5-1 μg of SUMO proteins.
# The discovery of such similarities implied that this SUMO-1 domain might functionally mimic the acetylated state of similar domains of transcription factors. Two approaches were used to determine if the identified SUMO-1 domain was acetylated. First, acetylation assays were performed in vitro using purified SUMO-1 protein and the catalytic domain of several acetyltransferases, specifically of CBP and PCAF, in the presence of 14C-acetyl CoA. […] To preliminarily map the site(s) of acetylation, we tested the ability of cold synthetic polypeptides corresponding to specific SUMO-1 regions, to inhibit CBP-mediated acetylation of the full-length protein in a reaction containing 14C-acetyl CoA.
# [4] = test system: H1299 cells; experiment: Cell cycle analysis by flow cytometry; type: cell-based, human; conditions: H1299 cells infected with adenovirus expressing p53, 72 hours after infection
# Experimental: FIG. 5. […] 72 hours after infection, cells were harvested and their cell cycle profile was analyzed (see materials and methods). B-C.
# Flow cytometry was performed as described previously by Knights, C. D., et al. J. Cell Biol. 173(4):533-544 (2006).
# [5] = target: T1, CBP; experiment: In vitro acetylation reaction with CBP; type: biochemical; conditions: purified protein, 14C-acetyl CoA, autoradiography
# Experimental: as §1, with “proteins. […]” for “proteins.”
# From the mass spectrometric analysis performed on the in vitro reactions, it was determined that CBP was able to acetylate the same residues that were found acetylated in vivo, specifically K37, K39 and K48. […]
# T1 sequence (Q92793 1323-1700 limits assumed): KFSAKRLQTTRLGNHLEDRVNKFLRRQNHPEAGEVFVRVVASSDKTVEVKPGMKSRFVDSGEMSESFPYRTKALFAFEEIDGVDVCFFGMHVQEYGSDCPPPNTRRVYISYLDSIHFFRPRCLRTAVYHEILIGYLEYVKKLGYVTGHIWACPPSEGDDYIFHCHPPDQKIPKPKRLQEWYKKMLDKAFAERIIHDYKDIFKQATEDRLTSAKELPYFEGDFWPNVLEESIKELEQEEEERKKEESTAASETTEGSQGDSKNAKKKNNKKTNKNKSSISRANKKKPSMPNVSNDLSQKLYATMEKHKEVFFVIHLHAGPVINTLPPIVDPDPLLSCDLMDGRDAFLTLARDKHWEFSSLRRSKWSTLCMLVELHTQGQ
# T2 sequence (Q92831 503-651 limits assumed, species assumed): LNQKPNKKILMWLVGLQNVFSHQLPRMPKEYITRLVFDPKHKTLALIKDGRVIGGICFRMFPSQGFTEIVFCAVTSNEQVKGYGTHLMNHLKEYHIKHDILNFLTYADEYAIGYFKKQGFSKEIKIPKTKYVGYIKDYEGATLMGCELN
Compound,inhibition of CBP-mediated acetylation of full-length SUMO-1 [2],acetylation by CBP [5],also measured
CC(/C=C/C(=O)NO)=C\[C@@H](C)C(=O)c1ccc(N(C)C)cc1 [TSA],,,acetylation signal on free SUMO-1 [1]: stronger than that seen in untreated cells; levels of acetylation on RanGAP [1]: only modestly influenced
COc1cc([C@@H]2c3cc4c(cc3[C@@H](O[C@@H]3O[C@@H]5CO[C@@H](C)O[C@H]5[C@H](O)[C@H]3O)[C@H]3COC(=O)[C@H]23)OCO4)cc(OC)c1O [etoposide],,,acetylation signal on free SUMO-1 [1]: stronger than that seen in untreated cells; levels of acetylation on RanGAP [1]: only modestly influenced
HFK(Ac)VK(Ac)MTT [K37-K39],completely blocked acetylation,,
HLK(Ac)K(Ac)LK(Ac)ES [K45-K46-K48],completely blocked acetylation,,
"SUMO-1: small ubiquitin-like modifier protein, SEQ ID NO:1; purified from Biomol or Flag-tagged expressed in H1299 cells",,efficiently acetylated,acetylation by PCAF [3]: not by PCAF; apoptotic cells [4]: 15%
"SUMO-2: purified SUMO-2 from Biomol, SEQ ID NO:2",,robustly acetylated,
"SUMO-3: purified SUMO-3 from Biomol, SEQ ID NO:3",,robustly acetylated,
YIK(Ac)LK(Ac)VIG [K25 and K26],only weakly abrogated,,
